Source: patent US6479540B1, “Compositions of tocol-soluble therapeutics” (Sonus Pharmaceuticals, Inc., priority 1999, dated 2002)
Structures can show the parent of a compound that is named as a salt. Each block holds one compound with its values, some of them ahead of it.

Legend:
Type in all cases: physicochemical
[1] = Release rate by dialysis in a diffusion chamber model; details: against 20% glycerol, 3% Poloxamer 407, pH 7.4, 37° C.
Description: Amiodarone HCl and a tocol emulsion containing amiodarone and tocopherol phosphate as a tocol-soluble binary ion pair, prepared as mentioned above, were dialyzed against 20% glycerol, 3% Poloxamer 407 at pH 7.4 and 37° C.
The rate of free or complexed drug exiting the dialysis chamber provides an indirect estimate of the “sustained release” properties of the emulsion and the strength of the ion pair species.

[2] = Erythromycin solubility in oils
[3] = Doxorubicin ion pair solubility in vitamin E and emulsification; details: ion pair with vitamin E phosphate free acid at 2:1 molar ratio
Source text: A fine emulsion can be prepared using high pressure homogenization to reduce particle size.

[4] = Solubility of clarithromycin in tocopherol oil phase (crystals on cooling)
Description: Clarithromycin was obtained as the free base from Wockhardt (Delhi, India). Vitamin E Succinate (VESA) was obtained from Eastman (Freeport Tenn.). Capmul® MCM was obtained from Abitec (Janesville Wis.); Poloxamer® 407 (Pluronic® F-127) from BASF (Parsippany N.J.); PEG-400 from Spectrum Chemicals (Gardenia Calif.), and d-δ-tocopherol from Sigma Chemicals (St Louis MO). An oil phase consisting of d-δ-tocopherol and Capmul MCM was prepared using 2 parts of δ-tocopherol. Dry ethanol was used to dissolve the components at 70° C. and the ethanol was then removed under vacuum. […] A tocol-soluble ion pair of this compound was then produced by addition of a stoichiometric equivalent of Vitamin E succinate (VESA) as the free acid. […] The clarithromycin was now sufficiently soluble in the tocopherol oil to allow subsequent preparation of the emulsion. The oil was then re-heated to 45° C. and degassed immediately prior to emulsification as described below.

Rate of dialysis / diffusion out of the dialysis chamber [1]: linear with concentration
SMILES: CCCCc1oc2ccccc2c1C(=O)c1cc(I)c(OCCN(CC)CC)c(I)c1 [Amiodarone HCl]

solubility in medium-chain triglycerides (MCT) ([2]; MCT): ~4 % w/w
solubility in α-tocopherol ([2]; α-tocopherol): approximately 10 % w/w
SMILES: CC[C@H]1OC(=O)[C@H](C)[C@@H](O[C@H]2C[C@@](C)(OC)[C@@H](O)[C@H](C)O2)[C@H](C)[C@@H](O[C@@H]2O[C@H](C)C[C@H](N(C)C)[C@H]2O)[C@](C)(O)C[C@@H](C)C(=O)[C@H](C)[C@@H](O)[C@]1(C)O [Erythromycin]

Solubility of ion pair in vitamin E [3]: soluble in vitamin E
SMILES: COc1cccc2c1C(=O)c1c(O)c3c(c(O)c1C2=O)C[C@@](O)(C(=O)CO)C[C@@H]3O[C@H]1C[C@H](N)[C@H](O)[C@H](C)O1 [doxorubicin free base, Doxorubicin]

Crystallization upon cooling of the oil ([4]; after addition of a stoichiometric equivalent of Vitamin E succinate (free acid), re-dissolution in ethanol and cooling): no crystals formed
Crystallization upon cooling of the oil ([4]; d-δ-tocopherol/Capmul MCM oil phase with surfactant, ethanol removed, without Vitamin E succinate): crystals of clarithromycin were observed
SMILES: CC[C@H]1OC(=O)[C@H](C)[C@@H](O[C@H]2C[C@@](C)(OC)[C@@H](O)[C@H](C)O2)[C@H](C)[C@@H](O[C@@H]2O[C@H](C)C[C@H](N(C)C)[C@H]2O)[C@](C)(OC)C[C@@H](C)C(=O)[C@H](C)[C@@H](O)[C@]1(C)O [Clarithromycin]
